Laboratory results published in ChEMBL document CHEMBL1142396, “Structure-activity relationships among the nitrogen containing bisphosphonates in clinical use and other analogues: time-dependent inhibition of human farnesyl pyrophosphate synthase” (J Med Chem, 2008).
Activity calls are given as the source filed them. The calls are words filed in the database; no cut-off is given here.

What was measured:
[1] = organism: Rattus norvegicus; experiment: Inhibition of bone resorption in rat assessed as phosphate; type: functional
[2] = target: T1, Farnesyl pyrophosphate synthase (Homo sapiens, UniProt P14324)
T1 sequence (P14324 whole entry): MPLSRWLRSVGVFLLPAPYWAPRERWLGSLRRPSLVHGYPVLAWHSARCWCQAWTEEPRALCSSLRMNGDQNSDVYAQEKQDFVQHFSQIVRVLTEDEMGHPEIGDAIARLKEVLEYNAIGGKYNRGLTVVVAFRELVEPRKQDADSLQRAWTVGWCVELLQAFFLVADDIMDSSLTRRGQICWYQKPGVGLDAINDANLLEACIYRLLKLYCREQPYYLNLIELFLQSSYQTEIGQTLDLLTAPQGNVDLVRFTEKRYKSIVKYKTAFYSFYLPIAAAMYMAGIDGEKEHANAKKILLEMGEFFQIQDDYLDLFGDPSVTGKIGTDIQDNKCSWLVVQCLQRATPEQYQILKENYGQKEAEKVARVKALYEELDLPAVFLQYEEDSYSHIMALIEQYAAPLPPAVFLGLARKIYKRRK

[3] = target: T1, Farnesyl pyrophosphate synthase; remark: listed apart in the source

Row | IC50 [2] [µM] | Ki [2] [µM] | IC50 [3] [µM] | Ki [3] [µM] | Structure (SMILES) | LED [1] [µg/kg] | Activity [1]
1 |  |  |  |  | O.O=P(O)(O)C(O)(Cn1ccnc1)P(=O)(O)O [ZOLEDRONIC ACID] | 0.1 | 
2 |  |  |  |  | O=P(O)(O)C(O)(Cc1cccnc1)P(=O)(O)O [RISEDRONIC ACID] | 0.3 | 
3 | > 10000 | > 4000 | 330 | 93 | Cc1cccnc1NC(P(C)(=O)O)P(C)(=O)O (stereo not given) |  | inactive
4 |  |  |  |  | O=P(O)(O)C(NC1CCCCC1)P(=O)(O)O [(CYCLOHEXYLAMINO)METHYLENEDIPHOSPHONIC ACID] | 1 | 
5 |  |  |  |  | NCCCCCC(O)(P(=O)(O)O)P(=O)(O)O [NERIDRONIC ACID] | 10 | 
6 | 0.259 | 0.039 | 0.0304 | 0.00445 | O=P(O)(O)C(Cc1ccccn1)P(=O)(O)O [PIRIDRONIC ACID] | 10 | 
7 |  |  |  |  | NCCC(O)(P(=O)(O)O)P(=O)(O)O [PAMIDRONIC ACID] | 30 | 
8 |  |  |  |  | O=P(O)(O)C(CNc1ccccn1)P(=O)(O)O | 10 | 
9 | 0.173 | 0.0348 | 0.0326 | 0.0074 | O=P(O)(O)C(Cc1cccnc1)P(=O)(O)O | 10 | 
10 | 0.349 | 0.0593 | 0.0092 | 0.00074 | O=P(O)(O)C(O)(Cc1ccccn1)P(=O)(O)O | 1 | 
11 |  |  |  |  | O=P(O)(O)C(O)(CCc1cccnc1)P(=O)(O)O | 1000 | 
12 |  |  |  |  | NCCCC(O)(P(=O)(O)O)P(=O)(O)O [ALENDRONIC ACID] | 1 | 
13 | 467 | 97.5 |  | 61 | O=C(O)C(O)(Cc1cccnc1)P(=O)(O)O (stereo not given) | 300 | 
14 |  |  |  |  | O=P(O)(O)C(O)(Cc1ccccc1)P(=O)(O)O | 100 | 
15 |  |  |  |  | O=P(O)(O)C(Nc1ccccn1)P(=O)(O)O | 10 | 
16 | 0.869 | 0.112 | 0.0238 | 0.00328 | O=P(O)(O)C(CC1CCCCN1)P(=O)(O)O (stereo not given) |  | 
17 | 0.592 | 0.137 | 0.0137 | 0.0016 | O=P(O)(O)C(O)(CC1CCCCN1)P(=O)(O)O (stereo not given) | 1 | 
18 | 1.71 | 0.177 | 0.0196 | 0.0039 | C[n+]1cccc(CC(O)(P(=O)(O)O)P(=O)(O)O)c1 | 0.1 | 
19 |  |  |  |  | CCCCCN(C)CCC(O)(P(=O)(O)O)P(=O)(O)O [IBANDRONIC ACID] | 0.1 | 
20 | 1.89 | 0.32 | 0.0614 | 0.0116 | Cc1cccnc1NC(P(C)(=O)O)P(=O)(O)O (stereo not given) | 1000 | 
21 | 243 | 40.5 | 181 | 29.8 | O=P(O)(O)OP(=O)(O)O [PYROPHOSPHORIC ACID] |  | 
22 |  |  |  |  | Cc1cccnc1NC(P(=O)(O)O)P(=O)(O)O | 1 | 

Row | Structure (SMILES) | IC50 [2] [µM] | Ki [2] [µM] | IC50 [3] [µM] | Ki [3] [µM] | LED [1] [µg/kg] | Activity [1]
23 | NCCCCC(O)(P(=O)(O)O)P(=O)(O)O | 1.08 | 0.194 | 0.298 | 0.0482 |  | 
24 | CC1CCCN=C1NC(P(=O)(O)O)P(=O)(O)O (stereo not given) | 0.541 | 0.0863 | 0.0103 | 0.001 | 0.3 | 
25 | O=P(O)(O)CCc1cccnc1 |  |  | 824 | 128 |  | 
26 | Cc1cccnc1NCC(P(=O)(O)O)P(=O)(O)O | 0.989 | 0.155 | 0.734 | 0.196 | 1000 | 
27 | Nc1ccccc1CC(O)(P(=O)(O)O)P(=O)(O)O | 0.371 | 0.0646 | 0.0216 | 0.0034 | 1 | 
